Data published in patent US10081606B2, “Heteroaryl compounds and uses thereof” (Celgene CAR LLC, priority 2010, dated 2018).

How the values were obtained:
[1] = test system: A431 cells (WT EGFR); assay: Cell proliferation (CellTiter Glo, 72 hr), A431; type: cell-based; conditions: Homo sapiens, A-431; A431 cells, 72 hr; read-out: WT EGFR GI50
Experimental: (§1) A431 human epidermoid carcinoma, H1975 human NSCLC and HCC827 human NSCLC adenocarcinoma cells were obtained from the American Type Culture Center (Manassas, Va.). A431 cells were grown in DMEM (Invitrogen, Carlsbad, Calif.) supplemented with 10% FBS (HyClone, South Logan, Utah) and 1% Penicillin-Streptomycin (P/S, Lonza, Walkersville, Md.).
(§2) Growth inhibition (GI50) values were determined by Graph Pad Prism.

[2] = target: EGFR L858R/T790M (H1975 cells) (Homo sapiens (Human), UniProt P00533, L858R/T790M); assay: EGFR signaling immunoblot (1 hr) in H1975 cells; type: cell-based
Experimental: as §1
(§3) All primary antibodies were obtained from Cell Signaling (Danvers, Mass.) and used at 1:1000. Secondary antibodies were used at 1:10,000. Goat anti-mouse IgG IRDye 800CW antibody was obtained from LiCor Biosciences (Lincoln, Nebr.) and goat anti-rabbit IgG Alexa Fluor 680 was obtained from Invitrogen.
(§4) Cells were grown in 12-well plates (Corning, Coring, N.Y.) to 90% confluence and then incubated in low-serum (0.1% FBS) media for 16-18 hr. […] A431 cells were then stimulated with 50 ng/ml EGF (Peprotech, Rocky Hill, N.J.) for 15 min. After treatment, cell monolayers were washed with cold PBS (Invitrogen) and immediately lysed by scrapping into 60 uL cold Cell Extraction Buffer (Invitrogen) supplemented with Complete Protease inhibitors (Roche, Indianapolis, Ind.) and PhosphoSTOP (Roche) phosphatase inhibitors.
(§5) Phospho-protein signals were quantitated using Odyssey Infrared Imaging (Li-Cor Biosciences).
Blots were normalized as indicated above. […] Normalized data was fitted using a sigmoidal curve analysis program (Graph Pad Prism version 5) with variable Hill slope to determine the EC50 values.

[3] = target: WT EGFR (A431 cells) (Homo sapiens (Human), UniProt P00533); assay: EGFR signaling immunoblot (1 hr) in A431 cells; type: cell-based
Experimental: as §1, §3, §4, §5
Blots were normalized as indicated above. […]

[4] = test system: HCC827 cells (EGFR delE746-A750); assay: Cell proliferation (CellTiter Glo, 72 hr), HCC827; type: cell-based, human
Experimental: as §1, §2

[5] = test system: H1975 cells (EGFR L858R/T790M); assay: Cell proliferation (CellTiter Glo, 72 hr), H1975; type: cell-based, human
Experimental: as §1, §2

[6] = target: EGFR T790M/L858R (Homo sapiens (Human), UniProt P00533, L858R/T790M); conditions: MS analysis

C=CC(=O)Nc1cccc(Oc2nc(Nc3ccc(OC)c(OC)c3OC)ncc2Cl)c1 [Compound I-7, N-(3-(5-chloro-2-(2,3,4-trimethoxyphenylamino)pyrimidin-4-yloxy)phenyl)acrylamide]
GI50 [1]: > 1 µM
inhibition of pEGFR and downstream S6 Ribosomal protein in H1975 cells ([2]; H1975 vs A431, FIG. 1 and 2): mutant selective
Ratio WT/mutant ([2]; signaling EC50, WT (A431) vs H1975): >50
WT-EGFR sparing in A431 cells (pEGFR, pS6) [3]: completely WT-EGFR sparing
GI50 ([4]; Homo sapiens, HCC827 cells, 72 hr, read-out: HCC827 GI50): 0.1 to 0.5 µM
Ratio WT/mutant ([4]; proliferation GI50, WT (A431) vs HCC827): >15
GI50 ([5]; Homo sapiens, NCI-H1975, H1975 cells, 72 hr, read-out: H1975 GI50): 0.1 to 0.5 µM
Ratio WT/mutant ([5]; proliferation GI50, WT (A431) vs H1975): >10
covalent modification of EGFR T790M/L858R [6]: covalently modify
